Assay [1] deals with T1, Prostaglandin G/H synthase 2 (Ovis aries, UniProt P79208).
T1 sequence (P79208 whole entry): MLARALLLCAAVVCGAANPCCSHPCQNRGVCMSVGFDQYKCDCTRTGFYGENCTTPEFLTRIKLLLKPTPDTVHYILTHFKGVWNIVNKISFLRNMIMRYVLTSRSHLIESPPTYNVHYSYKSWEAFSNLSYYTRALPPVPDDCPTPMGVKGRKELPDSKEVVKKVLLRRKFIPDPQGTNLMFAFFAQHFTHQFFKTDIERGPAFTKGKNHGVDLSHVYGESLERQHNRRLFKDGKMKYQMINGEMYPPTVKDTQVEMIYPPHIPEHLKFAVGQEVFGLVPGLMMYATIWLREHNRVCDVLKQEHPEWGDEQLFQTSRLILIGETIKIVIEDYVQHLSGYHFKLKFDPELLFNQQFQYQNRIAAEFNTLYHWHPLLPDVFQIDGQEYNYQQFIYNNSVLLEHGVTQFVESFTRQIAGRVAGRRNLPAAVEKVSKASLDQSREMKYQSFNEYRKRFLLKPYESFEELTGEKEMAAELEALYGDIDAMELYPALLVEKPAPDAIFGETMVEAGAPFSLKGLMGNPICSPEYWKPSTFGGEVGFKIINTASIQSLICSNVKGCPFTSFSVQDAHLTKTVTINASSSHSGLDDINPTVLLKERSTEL
Description: In Vitro COX-1 and COX-2 Inhibitory Assay.

In assay [2] the target is T2, Prostaglandin G/H synthase 1 (Ovis aries, UniProt P05979).
T2 sequence (P05979 whole entry): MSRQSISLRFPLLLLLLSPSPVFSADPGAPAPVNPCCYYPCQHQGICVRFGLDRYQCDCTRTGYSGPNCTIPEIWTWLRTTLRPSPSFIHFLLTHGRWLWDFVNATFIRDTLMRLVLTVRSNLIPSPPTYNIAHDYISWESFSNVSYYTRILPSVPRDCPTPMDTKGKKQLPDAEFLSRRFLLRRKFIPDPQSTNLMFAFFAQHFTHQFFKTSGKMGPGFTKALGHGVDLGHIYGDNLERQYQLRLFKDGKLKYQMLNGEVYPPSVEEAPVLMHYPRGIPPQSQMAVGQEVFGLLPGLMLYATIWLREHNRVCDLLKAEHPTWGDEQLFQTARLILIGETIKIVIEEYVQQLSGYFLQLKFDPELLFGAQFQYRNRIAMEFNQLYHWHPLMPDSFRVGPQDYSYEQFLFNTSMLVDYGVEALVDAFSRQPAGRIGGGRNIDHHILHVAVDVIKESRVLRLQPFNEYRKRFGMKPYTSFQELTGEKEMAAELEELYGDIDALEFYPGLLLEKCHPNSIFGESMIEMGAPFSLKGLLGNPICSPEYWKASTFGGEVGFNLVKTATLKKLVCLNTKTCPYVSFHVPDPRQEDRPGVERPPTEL
The experiment in a line: In Vitro COX-1 and COX-2 Inhibitory Assay.

Assay [3] has as its target T3, Polyunsaturated fatty acid 5-lipoxygenase (Homo sapiens, UniProt P09917).
T3 sequence (P09917 whole entry): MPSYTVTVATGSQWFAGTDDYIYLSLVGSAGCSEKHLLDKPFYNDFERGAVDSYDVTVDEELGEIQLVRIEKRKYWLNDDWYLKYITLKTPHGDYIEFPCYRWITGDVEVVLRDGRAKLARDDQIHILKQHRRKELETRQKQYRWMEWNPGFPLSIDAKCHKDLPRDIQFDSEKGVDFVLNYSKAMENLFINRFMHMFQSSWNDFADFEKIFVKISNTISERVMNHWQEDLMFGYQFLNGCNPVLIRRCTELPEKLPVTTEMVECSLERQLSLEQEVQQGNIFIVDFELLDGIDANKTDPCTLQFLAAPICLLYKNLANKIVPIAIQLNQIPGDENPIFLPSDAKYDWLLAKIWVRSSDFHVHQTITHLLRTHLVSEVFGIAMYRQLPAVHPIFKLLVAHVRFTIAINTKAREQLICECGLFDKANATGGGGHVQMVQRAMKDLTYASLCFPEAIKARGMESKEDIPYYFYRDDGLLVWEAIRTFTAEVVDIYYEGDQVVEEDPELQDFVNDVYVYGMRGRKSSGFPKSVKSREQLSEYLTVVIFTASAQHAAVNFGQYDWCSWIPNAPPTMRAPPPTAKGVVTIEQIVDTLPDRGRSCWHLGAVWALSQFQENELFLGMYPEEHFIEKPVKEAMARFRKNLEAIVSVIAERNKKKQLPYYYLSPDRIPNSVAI
The experiment in a line: In Vitro Lipoxygenase (LOX) Inhibitory Assay. As for the experimental part:
All the newly synthesized compounds were also evaluated in vitro for their ability to inhibit lipoxygenase enzyme. This was carried out using Abnova lipoxygenase inhibitor screening assay kit (Catalog No. (KA1329). Inhibitors were dissolved in DMSO and were added to the assay in a final volume of 10 μl before initiating with substrate. Three concentrations were prepared (25, 50 and 100 μM) and the concentration that produced 50% enzyme inhibition was determined according to manufacturer instructions [Plačkov et al., Free Radic. Biol. Med., 97:223-235].

These results are taken from BindingDB's records for doi:10.1016/j.bioorg.2017.03.012 (Alexandria University, 2017).

As for `O=C(NN1C(=O)CSC1=S)c1cc2ccccc2o1` [N-(4-Oxo-2-thioxothiazolidin-3-yl)benzofuran-2-carboxamide (9)], the half-maximal inhibitory concentration (IC50) was 1.83 µM in assay [1], 6.8 µM in assay [2] and 5.92 µM in assay [3].

On to `O=C(NN1C(=O)/C(=C/c2ccc(Cl)cc2)SC1=S)c1sc2ccccc2c1Cl` [3-Chloro-N-[5-(4-chlorobenzylidene)-4-oxo-2-thioxothiazolidin-3-yl]benzo[b]thiophene-2-carboxamide (5f)], for which the half-maximal inhibitory concentration (IC50) amounted to 1.23 µM in assay [1], 4.9 µM in assay [2] and 3.74 µM in assay [3].

For `COc1ccc(-c2nn(-c3ccccc3)cc2/C=C2\SC(=S)N(NC(=O)c3sc4ccccc4c3Cl)C2=O)cc1` [3-Chloro-N-(5-{[3-(4-methoxyphenyl)-1-phenyl-1H-pyrazol-4-yl]methylene}-4-oxo-2-thioxothiazolidin-3-yl)benzo[b]thiophene-2-carboxamide (5b)], the results for the IC50 in assay [1], in assay [2] and in assay [3] were 2.61 µM, 7.6 µM and 8.71 µM, respectively.

In the case of `O=C(NN1C(=O)/C(=C/c2cn(-c3ccccc3)nc2-c2ccccc2)SC1=S)c1sc2ccccc2c1Cl` [3-Chloro-N-{5-[(1,3-diphenyl-1H-pyrazol-4-yl)methylene]-4-oxo-2-thioxothiazolidin-3-yl}benzo[b]thiophene-2-carboxamide (5a)], the IC50 in assay [1] turned out to be 1.49 µM; in assay [2], 5.1 µM; in assay [3] it was 3.97 µM.

As for `COc1ccc(/C=C2\SC(=S)N(NC(=O)c3sc4ccccc4c3Cl)C2=O)cc1` [3-Chloro-N-[5-(4-methoxybenzylidene)-4-oxo-2-thioxothiazolidin-3-yl]benzo[b]thiophene-2-carboxamide (5e)], the concentration for half-maximal inhibition (IC50) in assay [1] was 1.89 µM; in assay [2], 6.3 µM; in assay [3], 4.97 µM.

For the molecule `O=C(NN1C(=O)/C(=C/c2ccccc2)SC1=S)c1sc2ccccc2c1Cl` [N-(5-Benzylidene-4-oxo-2-thioxothiazolidin-3-yl)-3-chlorobenzo[b]thiophene-2-carboxamide (5d)], the half-inhibitory concentration (IC50) in assay [1] turned out to be 3.12 µM; in assay [2], 10.6 µM; in assay [3], 8.74 µM.

Take `O=C1Nc2ccccc2/C1=C1\SC(=S)N(NC(=O)c2sc3ccccc3c2Cl)C1=O` [3-Chloro-N-[4-oxo-5-(2-oxoindolin-3-ylidene)-2-thioxothiazolidin-3-yl]benzo[b]thiophene-2-carboxamide (5i)]: the IC50 in assay [1] was determined as 1.56 µM; in assay [2], 5.9 µM; in assay [3] it was 6.87 µM.

Consider `O=C(NN1C(=O)/C(=C/c2cn(-c3ccccc3)nc2-c2ccc(Br)cc2)SC1=S)c1cc2ccccc2o1` [N-(5-{[3-(4-Bromophenyl)-1-phenyl-1H-pyrazol-4-yl]methylene}-4-oxo-2-thioxothiazolidin-3-yl)benzofuran-2-carboxamide (10c)], for which the IC50 is 5.32 µM in assay [1], 13.4 µM in assay [2] and 10.2 µM in assay [3].

As for `COc1ccc(-c2nn(-c3ccccc3)cc2/C=C2\SC(=S)N(NC(=O)c3cc4ccccc4o3)C2=O)cc1` [N-(5-{[3-(4-Methoxyphenyl)-1-phenyl-1H-pyrazol-4-yl]methylene}-4-oxo-2-thioxothiazolidin-3-yl)benzofuran-2-carboxamide (10b)], the IC50 amounted to 2.74 µM in assay [1], 8.7 µM in assay [2] and 6.91 µM in assay [3].

With `O=C(NN1C(=O)/C(=C/c2cn(-c3ccccc3)nc2-c2ccccc2)SC1=S)c1cc2ccccc2o1` [N-{5-[(1,3-Diphenyl-1H-pyrazol-4-yl)methylene]-4-oxo-2-thioxothiazolidin-3-yl}benzofuran2-carboxamide (10a)], the concentration for half-maximal inhibition (IC50) in assay [1] was found to be 4.81 µM; in assay [2] it was 12.4 µM; in assay [3], 9.21 µM.

In the case of `O=C(NN1C(=O)/C(=C/c2cn(-c3ccccc3)nc2-c2ccc(Br)cc2)SC1=S)c1sc2ccccc2c1Cl` [N-(5-{[3-(4-Bromophenyl)-1-phenyl-1H-pyrazol-4-yl]methylene}-4-oxo-2-thioxothiazolidin-3-yl)-3-chlorobenzo[b]thiophene-2-carboxamide (5c)], the IC50 came out at 4.88 µM in assay [1], 12.4 µM in assay [2] and 9.51 µM in assay [3].

`COc1ccc(/C=C2\SC(=S)N(NC(=O)c3sc4ccccc4c3Cl)C2=O)cc1OC` [3-Chloro-N-[5-(3,4-dimethoxybenzylidene)-4-oxo-2-thioxothiazolidin-3-yl]benzo [b]thiophene-2-carboxamide (5h)] showed an IC50 in assay [2] of 3.4 µM.

As for `O=C(NN1C(=O)CSC1=S)c1sc2ccccc2c1Cl` [3-Chloro-N-(4-oxo-2-thioxothiazolidin-3-yl)benzo[b]thiophene-2-carboxamide (4)], the IC50 in assay [1] was determined as 2.43 µM; in assay [2], 8.7 µM; in assay [3] it was 6.87 µM.

Turning to `Cc1ccc(-c2cc(C(F)(F)F)nn2-c2ccc(S(N)(=O)=O)cc2)cc1` [Celecoxib], the IC50 in assay [3] stood at 6.87 µM.

Turning to `COc1cc(/C=C2\SC(=S)N(NC(=O)c3sc4ccccc4c3Cl)C2=O)ccc1O` [3-Chloro-N-[5-(4-hydroxy-3-methoxybenzylidene)-4-oxo-2-thioxothiazolidin-3-yl]benzo [b]thiophene-2-carboxamide (5g)], the figures for the IC50 in assay [1], in assay [2] and in assay [3] were 4.22 µM, 10.4 µM and 6.91 µM, respectively.

`Cc1ccc(Cl)c(Nc2ccccc2C(=O)O)c1Cl` had a half-maximal inhibitory concentration (IC50) in assay [3] of 5.64 µM. In other words, the single-digit micromolar range.
